Assay results as given in patent publication US10172839B2, “Use of short term starvation regimen in combination with kinase inhibitors to enhance traditional chemo-drug efficacy and feasibility and reverse side effects of kinases in normal cells and tissues” (UNIVERSITY OF SOUTHERN CALIFORNIA, priority 2014, dated 2019).

Columns and labels:
[1] = Blood glucose levels in mice treated with STS, rapamycin, and rapamycin with STS; type: in vivo
Protocol: Methods: Short term starvation (STS) or fasting mimicking diet (FMD) were administrated bi-weekly for periods of 48 h or 4 days, respectively. The end of the dietary intervention coincided with the administration of doxorubicin by intravenous injection. The animals were given a period of 10 to 12 days to recover bodyweight between one cycle of dietary intervention and the next. […] One-way ANOVA test was performed and differences with p-value<0.05 were considered significant (p-value<0.05, 0.01 and 0.001 are indicated as *, […], respectively).

[2] = Stress resistance experiment: survival after high dose doxorubicin

SMILES: CO[C@H]1C[C@@H]2CC[C@@H](C)[C@@](O)(O2)C(=O)C(=O)N2CCCC[C@H]2C(=O)O[C@H]([C@H](C)C[C@@H]2CC[C@@H](O)[C@H](OC)C2)CC(=O)[C@H](C)/C=C(\C)[C@@H](O)[C@@H](OC)C(=O)[C@H](C)C[C@H](C)/C=C/C=C/C=C/1C [rapamycin]
- blood glucose ([1]; Rapa+STS/FMD mice (FIG. 1A)): decreased blood glucose
- blood glucose ([1]; rapamycin alone, intraperitoneally every day, ad lib feeding (FIG. 1A)): increase of blood glucose
- mortality / survival at day 20 ([2]; rapamycin 14 days + STS 48 h prior to doxorubicin 24 mg/kg iv (FIG. 2B)): STS can reverse the sensitization of normal tissue to chemotherapy induced by rapamycin
- mortality / survival at day 20 ([2]; rapamycin 14 days, then doxorubicin 24 mg/kg iv, ad lib feeding (FIG. 2B)): increased mortality
